Among the data in patent publication US20260226062A1, “COMPOSITIONS USEFUL FOR MODULATING SPLICING” (Skyhawk Therapeutics, Inc., priority 2023, published 2026) are IC50 values, retold here.

This experiment has as its system ATXN3 pre-mRNA. The experiment is described as follows: ATXN3 Quantitative Splicing Assay (qPCR, E4E5 primers/probe detecting transcripts containing exon 4). In kind it is cell-based. To be noted: Human neuroblastoma SK-N-MC cells, 24 h treatment, qPCR of transcripts containing exon 4; read-out: ATXN3 Potency - Splicing: ATXN3 E4E5 IC50. The method, then:
Human neuroblastoma SK-N-MC cells were plated in 384-well plates at 20,000 cells/well. Twenty-four hours after plating, cells were treated with compounds for 24 h at appropriate concentrations ranging from 30 μM to 0.6 nM (0.3% DMSO). Treated cells were lysed in 15 μL of lysis buffer, and cDNA was synthesized using the Fast Advanced Cells-to-Ct kit. Two μL of each cDNA was used in qPCR reactions to confirm the exon 4 skipped transcripts of ATXN3. A second set of primers/probe E4E5 was used to detect the transcripts containing exon 4. The third set of primers/probe E8E9 was used to detect total gene level of ATXN3. The qPCR reactions were prepared in 384-well plates in 10 μL volume, using TaqMan™ Fast Advanced Master Mix with primers and probes shown in the table below. Reactions were run in a Quant Studio 6 qPCR instrument with default settings.
The primers and probes are listed below in Table 3.
In general terms: Quantitative PCR measures a nucleic acid by following its amplification.

As a reminder, the IC50 is the concentration at which inhibition is half-maximal. With `Cc1c(C[C@@H](N)[C@H](C)F)cc2c(NCc3nccs3)nc(Cl)nn12` [Compound 4, 6-((2R,3S)-2-amino-3-fluorobutyl)-2-chloro-7-methyl-N-(thiazol-2-ylmethyl)pyrrolo[2,1-f][1,2,4]triazin-4-amine], the IC50 was in the range of 101 to 500 nM.
The value for `C[C@H](F)[C@H](N)Cc1cc2c(NCc3nccs3)nc(Cl)nn2c1Cl` [Compound 5, 6-((2R,3S)-2-amino-3-fluorobutyl)-2,7-dichloro-N-(thiazol-2-ylmethyl)pyrrolo[2,1-f][1,2,4]triazin-4-amine] was 101 to 500 nM.
Under `Cc1c(C[C@@H](N)[C@H](C)F)cc2c(NCc3ccon3)nc(Cl)nn12` [Compound 9, 6-((2R,3S)-2-amino-3-fluorobutyl)-2-chloro-N-(isoxazol-3-ylmethyl)-7-methylpyrrolo[2,1-f][1,2,4]triazin-4-amine] stands 501 to 5000 nM; under `Cc1c(C[C@@H](N)[C@H](C)F)cc2c(NCc3ncco3)nc(Cl)nn12` [Compound 2, 6-((2R,3S)-2-amino-3-fluorobutyl)-2-chloro-7-methyl-N-(oxazol-2-ylmethyl)pyrrolo[2,1-f][1,2,4]triazin-4-amine], 501 to 5000 nM.
As for `C[C@H](F)[C@H](N)Cc1cc2c(NCc3nccs3)nc(Cl)nn2c1Br` [Compound 3, 6-((2R,3S)-2-amino-3-fluorobutyl)-7-bromo-2-chloro-N-(thiazol-2-ylmethyl)pyrrolo[2,1-f][1,2,4]triazin-4-amine], the IC50 was 101 to 500 nM.
Take `C[C@H](F)[C@H](N)Cc1cc2c(NCc3ccsn3)nc(Cl)nn2c1Br` [Compound 8, 6-((2R,3S)-2-amino-3-fluorobutyl)-7-bromo-2-chloro-N-(isothiazol-3-ylmethyl)pyrrolo[2,1-f][1,2,4]triazin-4-amine]: the IC50 fell in the range of 0.01 to 100 nM.
In the case of `Cc1c(C[C@@H](N)[C@H](C)F)cc2c(NCc3ccsn3)nc(Cl)nn12` [Compound 10, 6-((2R,3S)-2-amino-3-fluorobutyl)-2-chloro-N-(isothiazol-3-ylmethyl)-7-methylpyrrolo[2,1-f][1,2,4]triazin-4-amine], the IC50 was 101 to 500 nM.
The value for `C[C@H](F)[C@H](N)Cc1cc2c(NCc3ncco3)nc(Cl)nn2c1Br` [Compound 1, 6-((2R,3S)-2-amino-3-fluorobutyl)-7-bromo-2-chloro-N-(oxazol-2-ylmethyl)pyrrolo[2,1-f][1,2,4]triazin-4-amine] was 101 to 500 nM; that for `C[C@H](F)[C@H](N)Cc1cc2c(NCc3ccon3)nc(Cl)nn2c1Br` [Compound 7, 6-((2R,3S)-2-amino-3-fluorobutyl)-7-bromo-2-chloro-N-(isoxazol-3-ylmethyl)pyrrolo[2,1-f][1,2,4]triazin-4-amine] was 101 to 500 nM.
Under `C[C@H](F)[C@H](N)Cc1cc2c(NCc3ncco3)nc(Cl)nn2c1Cl` [Compound 6, 6-((2R,3S)-2-amino-3-fluorobutyl)-2,7-dichloro-N-(oxazol-2-ylmethyl)pyrrolo[2,1-f][1,2,4]triazin-4-amine] stands 101 to 500 nM.
